Results taken from patent US12570675B2, “Boronic acid compounds” (LG CHEM, LTD., priority 2020, dated 2026).

Legend:
[1] = target: Proteasome chymotrypsin-like activity (S26 protein from RPMI8226 cells) (Homo sapiens, UniProt P28074); assay type: biochemical; details: S26 protein from RPMI8226 cell extract 2 ug/well, substrate 20 uM, 37° C., 90 minutes; read-out: Proteasome chymotrypsin-like activity inhibition IC50
Outline: (§1)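 Fluorogenic AMC substrates (20 uM final) report chymotrypsin-like (Suc-Leu-Leu-Val-Tyr-AMC) or caspase-like (Z-Leu-Leu-Glu-AMC) cleavage by RPMI8226-derived S26 protein, 2 ug/well, pH 8.0 Tris lysate.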

[2] = target: Proteasome caspase-like activity (S26 protein from RPMI8226 cells) (Homo sapiens (Human), UniProt P28072); experiment: Proteasome caspase-like activity inhibition (Z-Leu-Leu-Glu-AMC fluorogenic substrate, RPMI8226 cell extract); assay type: biochemical; details: S26 protein from RPMI8226 cell extract 2 ug/well, substrate 20 uM, 37° C., 90 minutes
Proteasome caspase-like activity (S26 protein from RPMI8226 cells), sequence (P28072 whole entry): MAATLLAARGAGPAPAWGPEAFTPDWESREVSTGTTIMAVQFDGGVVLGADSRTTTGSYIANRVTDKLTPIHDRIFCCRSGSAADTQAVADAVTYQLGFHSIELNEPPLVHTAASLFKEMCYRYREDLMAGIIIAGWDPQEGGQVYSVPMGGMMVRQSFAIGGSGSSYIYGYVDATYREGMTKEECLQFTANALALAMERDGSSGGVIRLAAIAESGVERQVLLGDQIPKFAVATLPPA
Outline: as §1

Proteasome chymotrypsin-like activity (S26 protein from RPMI8226 cells), sequence (P28074 60-263 limits assumed): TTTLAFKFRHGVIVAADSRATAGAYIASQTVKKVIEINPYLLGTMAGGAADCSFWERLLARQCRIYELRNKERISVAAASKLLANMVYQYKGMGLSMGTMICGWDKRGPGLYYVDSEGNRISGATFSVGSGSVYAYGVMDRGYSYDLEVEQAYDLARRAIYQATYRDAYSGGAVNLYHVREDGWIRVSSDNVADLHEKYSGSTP

| Structure (SMILES) | IC50 [1] [nM] | IC50 [2] [nM] |
| --- | --- | --- |
| Cc1cc(C(=O)NCC2=NOC(Cc3ccccc3)(C(=O)N[C@@H](CC(C)C)B(O)O)C2)n(-c2ccccc2)n1 (stereo partly drawn) [Example 246, ((1R)-1-(5-benzyl-3-((3-methyl-1-phenyl-1H-pyrazol-5-carboxamido)methyl)-4,5-dihydroisoxazol-5-carboxamido)-3-methylbutyl)boronic acid] | < 10 | > 1000 |
| Cc1cc(C(=O)NCC2=NOC(Cc3ccccc3)(C(=O)N[C@@H](CC(C)C)B(O)O)C2)n(-c2ccc(F)cc2)n1 (stereo partly drawn) [Example 247, ((1R)-1-(5-benzyl-3-((1-(4-fluorophenyl)-3-methyl-1H-pyrazol-5-carboxamido)methyl)-4,5-dihydroisoxazol-5-carboxamido)-3-methylbutyl)boronic acid] | < 10 | > 1000 |
| CC(C)C[C@H](NC(=O)C1CC(COCc2ccccc2)=NO1)B(O)O (stereo partly drawn) [Example 252] | < 100 | > 500 |
| CC(C)C[C@H](NC(=O)C1(Cc2ccccc2)CC(COCc2ccccc2)=NO1)B(O)O (stereo partly drawn) [Example 256] | < 10 | > 1000 |
| O=C(N[C@@H](Cc1ccccc1)B(O)O)C1(Cc2ccccc2)CC(COCc2ccccc2)=NO1 (stereo partly drawn) [Example 257, ((1R)-1-(5-benzyl-3-((benzyloxy)methyl)-4,5-dihydroisoxazol-5-carboxamido)-2-phenylethyl)boronic acid] | < 10 | > 2500 |
| CC(C)C[C@H](NC(=O)C1(Cc2ccccc2)CC(CNC(=O)c2ccccc2)=NO1)B(O)O (stereo partly drawn) [Example 291] | < 10 | > 250 |
| O=C(NCC1=NOC(Cc2ccccc2)(C(=O)N[C@@H](Cc2ccccc2)B(O)O)C1)c1ccccc1 (stereo partly drawn) [Example 292, ((1R)-1-(3-(benzamidomethyl)-5-benzyl-4,5-dihydroisoxazol-5-carboxamido)-2-phenylethyl)boronic acid] | < 10 | > 1000 |
| CC(C)[C@H](NC(=O)C1(Cc2ccccc2)CC(CNC(=O)c2ccccc2)=NO1)B(O)O (stereo partly drawn) [Example 294, ((1R)-1-(3-(benzamidomethyl)-5-benzyl-4,5-dihydroisoxazol-5-carboxamido)-2-methylpropyl)boronic acid] | < 10 | > 1000 |
| CC(C)C[C@H](NC(=O)C1(Cc2ccccc2)CC(CNC(=O)c2cccc(Cl)n2)=NO1)B(O)O (stereo partly drawn) [Example 308] | < 10 | > 500 |
